Test results reported in patent US20220135663A1, “Method of treatment of Chronic Low Back Pain” (Pfizer Inc., priority 2019, published 2022).
“Also recorded” adds a separate entry of the source.

How the values were obtained:
[1] = molecular target: T1, NGF (Homo sapiens, UniProt P01138); conditions: cited from earlier work
[2] = test system: adult patients with chronic low back pain; test: Study 1059, Phase 3: efficacy (LBPI, RMDQ) in chronic low back pain; type: in vivo, human
Description: The Low Back Pain Intensity (LBPI) measure is assessed with an 11-point numeric rating scale ranging from 0 (no pain) to 10 (worst possible pain). The LBPI score can be the daily average LBPI score.
The Roland Morris Disability Questionnaire (RMDQ) is an index of how well subjects with low back pain are able to function with regard to daily activities (Roland M, Fairbank. The Roland-Morris Questionnaire and the Oswestry Disability Questionnaire. Spine. 2000; 25 (4)3115-3124). It is a low back pain-specific assessment of physical function with scores ranging from 0 to 24 (lower scores indicate better function).
(§1) Patients were also required to have documented history of previous inadequate treatment response to at least 3 different categories of agents commonly used and generally considered effective for the treatment of chronic low back pain. Patients were required to discontinue all medications for the treatment of chronic low back pain during the primary efficacy assessment period (up to Week 16).
Approximately 1800 patients were planned to be randomized initially in a 2:2:2:3 ratio to 1 of 4 following treatment groups:
1. Placebo administered SC at an 8-week interval plus placebo matching tramadol PR up to Week 16. At the Week 16 visit, patients in this group were switched in a blinded fashion in a 1:1 ratio to either tanezumab 5 mg or tanezumab 10 mg administered SC at an 8 week interval plus placebo matching tramadol PR to Week 56;
2. Tanezumab 5 mg SC administered at an 8-week interval plus placebo matching tramadol PR to Week 56;
3. Tanezumab 10 mg SC administered at an 8-week interval plus placebo matching tramadol PR to Week 56;
4. Oral tramadol PR 100-300 mg daily plus placebo administered SC at an 8-week interval to Week 56.
To achieve the initial randomization and intended re-randomization at Week 16 for placebo patients, a randomization ratio 1:1:2:2:3 for placebo→tanezumab 5 mg (at Week 16), placebo→tanezumab 10 mg (at Week 16), tanezumab 5 mg, tanezumab 10 mg, and tramadol PR was used at the beginning of the trial.
Table 2 summarizes the requirements for analgesic medication usage prior to Screening and the requirements for LBPI and Patient's Global Assessment (PGA) of CLBP. The current study enrolled patients who were more refractory to standard of care treatments for CLBP and had higher LBPI scores at Baseline.

[3] = test system: subjects with chronic low back pain (CLBP); conditions: in vivo
Description: This second study (termed “Study 1063) was a randomized, double-blind, active-controlled, multicenter, parallel-group Phase 3 study in Japan to evaluate the safety and efficacy of tanezumab when administered by SC injection for up to 56 weeks in subjects with chronic low back pain (CLBP). […] Patients were also required to be experiencing some benefit from their current stable dose regimen of oral therapy of NSAID (celecoxib 200 mg/day [100 mg BID], loxoprofen 120 to 180 mg/day or meloxicam 5 to 15 mg/day) treatment, but still required additional pain relief at screening. […] Patients with a diagnosis of osteoarthritis of the knee or hip as defined by the American College of Rheumatology combined clinical and radiographic criteria or who had Kellgren Lawrence Grade ≥2 radiographic evidence of hip osteoarthritis or Kellgren Lawrence Grade ≤3 radiographic evidence of knee osteoarthritis were excluded.
Treatment groups were as follows: 1. Tanezumab 5 mg SC and placebo for celecoxib BID; 2. Tanezumab 10 mg SC and placebo for celecoxib BID; 3. Placebo for tanezumab SC and celecoxib BID.
This study was designed with a total (post-randomization) duration of 80 weeks and consisted of three periods: (1) a Screening period (up to a maximum of 37 days), (2) a Double-blind Treatment period (56 weeks), and (3) a Safety Follow-up (24 weeks) Period (FIG. 8). The Screening Period included a Washout Period (lasting 2-32 days) if required, and an Initial Pain Assessment Period (IPAP) (5 days prior to Randomization/Baseline; minimum 4 days).
The Safety analysis set included all patients who received at least one dose of SC study treatment. This analysis set was primary for all safety endpoints, which were analyzed according to treatment received, and was labeled as the ‘Safety population’. In this study, the ITT and Safety analysis sets were identical.

[4] = test system: adult patients with chronic low back pain; test: Study 1059: adverse events and adjudicated joint safety; type: in vivo, human; conditions: for incidence of discontinuations from treatment due to an adverse event / incidence of serious adverse events / overall incidence of adverse events: 56-week treatment period
Excerpt: For subjects who are identified with a possible or probable joint event (i.e., rapidly progressive osteoarthritis, subchondral insufficiency fractures, spontaneous osteonecrosis of the knee (SPONK), primary osteonecrosis or pathological fracture) and subjects undergoing total joint replacement for any reason, all images and other source documentation may be provided to the blinded Adjudication Committee for review and adjudication of the event. The Adjudication Committee's assessment of the event may represent the final classification of the event.
as §1

[5] = molecular target: T1, NGF; conditions: cell culture models; cited from earlier work
[6] = test system: OA; conditions: tanezumab 2.5-5 mg combined, N = 2000; cited from earlier work
[7] = test system: subjects with chronic low back pain (CLBP); test: Study 1063, Phase 3 in Japan: efficacy (LBPI, RMDQ) in chronic low back pain; type: in vivo, human
Description: Patients received a total of seven SC injections, separated by 8 weeks (tanezumab or
Treatment groups were as follows: 1. […] Placebo for tanezumab SC and celecoxib BID.
The Intent-to-Treat (ITT) analysis set included all patients who were randomized and received at least one dose of SC study medication (either tanezumab or placebo). This analysis set was primary for all efficacy endpoints, which were analyzed according to randomization assignment, and was labeled as the ‘ITT population’.

[8] = 5 mg SC every 8 weeks, listed as Tan
[9] = 10 mg SC every 8 weeks, listed as Tan
[10] = tanezumab 5-10 mg combined, N = 1008

T1 sequence (P01138 122-241): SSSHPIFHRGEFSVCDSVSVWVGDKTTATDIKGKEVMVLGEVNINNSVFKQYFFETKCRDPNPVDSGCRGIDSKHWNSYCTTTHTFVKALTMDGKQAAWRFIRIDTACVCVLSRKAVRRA

Substance: tanezumab: humanized IgG2 monoclonal antibody directed against human nerve growth factor (NGF); heavy chain SEQ ID NO: 9 or 11, light chain SEQ ID NO: 10
- binding to NGF [1]: high specificity and affinity; also recorded: high affinity and specificity
- LBPI at week 56, LS mean difference versus tramadol ([2]; 5 mg SC every 8 weeks): −0.11
- LBPI change from Baseline to Week 2, Difference vs. plc ([2]; 5 mg SC every 8 weeks): −0.37
- LBPI change from Baseline to Week 2, LS Mean ([2]; 5 mg SC every 8 weeks): −1.54
- LBPI change from Baseline to Week 16, Difference vs. plc ([2]; 5 mg SC every 8 weeks): No statistically significant improvement
- LBPI change from Baseline to Week 16, LS Mean ([2]; 5 mg SC every 8 weeks): −2.98
- Proportion of patients with ≥50% improvement in LBPI at Week 16 ([2]; 5 mg SC every 8 weeks): (43.3) %
- RMDQ at week 56, LS mean difference versus tramadol ([2]; 5 mg SC every 8 weeks): −0.44
- RMDQ change from Baseline to Week 16, Difference vs. plc ([2]; 5 mg SC every 8 weeks): larger improvement in RMDQ versus placebo treatment
- RMDQ change from Baseline to Week 16, LS Mean ([2]; 5 mg SC every 8 weeks): −6.27
- percentage of patients achieving ≥30% improvement in LBPI at week 16 ([2]; 5 mg SC every 8 weeks): 64.8%
- ≥30% improvement in LBPI at week 16, odds ratio versus placebo ([2]; 5 mg SC every 8 weeks): 1.45
- ≥30% improvement in LBPI at week 16, odds ratio versus tramadol ([2]; 5 mg SC every 8 weeks): 1.34
- ≥50% improvement in LBPI at Week 16, OR vs. plc ([2]; 5 mg SC every 8 weeks): 1.28
- LBPI change from Baseline to Week 16, Difference vs. plc [2, 8]: −0.30
- RMDQ change from Baseline to Week 16, Difference vs. plc [2, 8]: −1.32
- LBPI at week 56, LS mean difference versus tramadol ([2]; 10 mg SC every 8 weeks): −0.21
- LBPI change from Baseline to Week 2, Difference vs. plc ([2]; 10 mg SC every 8 weeks): onset of effect at Week 2
- LBPI change from Baseline to Week 2, LS Mean ([2]; 10 mg SC every 8 weeks): −1.59
- LBPI change from Baseline to Week 16, Difference vs. plc ([2]; 10 mg SC every 8 weeks): statistically significant improvement
- LBPI change from Baseline to Week 16, LS Mean ([2]; 10 mg SC every 8 weeks): −3.08
- Proportion of patients with ≥50% improvement in LBPI at Week 16 ([2]; 10 mg SC every 8 weeks): (46.3) %
- RMDQ at week 56, LS mean difference versus tramadol ([2]; 10 mg SC every 8 weeks): −0.83
- RMDQ change from Baseline to Week 16, Difference vs. plc ([2]; 10 mg SC every 8 weeks): superior improvement in physical function
- RMDQ change from Baseline to Week 16, LS Mean ([2]; 10 mg SC every 8 weeks): −6.69
- percentage of patients achieving ≥30% improvement in LBPI at week 16 ([2]; 10 mg SC every 8 weeks): 65.5%
- ≥30% improvement in LBPI at week 16, odds ratio versus placebo ([2]; 10 mg SC every 8 weeks): 1.50
- ≥30% improvement in LBPI at week 16, odds ratio versus tramadol ([2]; 10 mg SC every 8 weeks): 1.38
- ≥50% improvement in LBPI at Week 16, OR vs. plc ([2]; 10 mg SC every 8 weeks): superior responder rate
- LBPI change from Baseline to Week 2, Difference vs. plc [2, 9]: −0.42
- LBPI change from Baseline to Week 16, Difference vs. plc [2, 9]: −0.40
- RMDQ change from Baseline to Week 16, Difference vs. plc [2, 9]: −1.74
- ≥50% improvement in LBPI at Week 16, OR vs. plc [2, 9]: 1.45
- severity of abnormal peripheral sensation adverse events [3]: mild in severity
- severity of potential sympathetic dysfunction events [3]: mild in severity
- incidence of adverse events of potential sympathetic dysfunction ([4]; 5 mg): 5.9%
- incidence of carpal tunnel syndrome ([4]; 5 mg): 1.0%
- incidence of hypoaesthesia ([4]; 5 mg): 3.0%
- incidence of composite joint safety endpoint ([4]; 5 mg SC every 8 weeks): 1.0%
- observation-time adjusted rate of composite joint safety endpoint ([4]; 5 mg SC every 8 weeks): 10.0 events/1000 patient-years
- patients adjudicated to normal progression of OA, number ([4]; 5 mg SC every 8 weeks): 1 patient
- patients with joint safety event adjudicated to RPOA Type 1 ([4]; 5 mg SC every 8 weeks): 1.0%
- patients with joint safety event adjudicated to RPOA Type 1, number ([4]; 5 mg SC every 8 weeks): 5 patients
- incidence of discontinuations from treatment due to an adverse event ([4]; 5 mg): 6.7%
- incidence of serious adverse events ([4]; 5 mg): 2.2%
- overall incidence of adverse events ([4]; 5 mg): 58.3%
- incidence of adverse events of potential sympathetic dysfunction ([4]; 10 mg): 6.4%
- incidence of carpal tunnel syndrome ([4]; 10 mg): 1.6%
- incidence of hypoaesthesia ([4]; 10 mg): 3.8%
- incidence of composite joint safety endpoint ([4]; 10 mg SC every 8 weeks): 2.6%
- observation-time adjusted rate of composite joint safety endpoint ([4]; 10 mg SC every 8 weeks): 25.7 events/1000 patient-years
- patients adjudicated to normal progression of OA, number ([4]; 10 mg SC every 8 weeks): 1 patient
- patients with joint safety event adjudicated to RPOA Type 1 ([4]; 10 mg SC every 8 weeks): 1.4%
- patients with joint safety event adjudicated to RPOA Type 1, number ([4]; 10 mg SC every 8 weeks): 7 patients
- patients with joint safety events adjudicated to RPOA Type 2 ([4]; 10 mg SC every 8 weeks): 0.4%
- patients with joint safety events adjudicated to RPOA Type 2, number ([4]; 10 mg SC every 8 weeks): Two
- patients with subchondral insufficiency fracture ([4]; 10 mg SC every 8 weeks): 0.8%
- patients with subchondral insufficiency fracture, number ([4]; 10 mg SC every 8 weeks): Four and four
- patients with total joint replacement during study observation period, number ([4]; 10 mg SC every 8 weeks): 7 patients
- incidence of discontinuations from treatment due to an adverse event ([4]; 10 mg): 7.4%
- incidence of serious adverse events ([4]; 10 mg): 4.6%
- overall incidence of adverse events ([4]; 10 mg): 63.7%
- Primary Osteonecrosis, n (%) [4, 10]: 0 n (%)
- RPOA Type 1 [4, 10]: (1.2%)
- RPOA Type 2 [4, 10]: (0.2%)
- Subchondral Insufficiency Fracture [4, 10]: (0.4%)
- patients with joint safety event requiring adjudication ([4]; tanezumab-treated patients (5 and 10 mg combined), 80-week observation period): 2.6%
- blocking of the activity of NGF [5]: blocks the activity of NGF effectively
- Primary Osteonecrosis [6]: (0.1%)
- RPOA [6]: (4.8%)
- RPOA Type 1 [6]: (3.9%)
- RPOA Type 2 [6]: (0.9%)
- Subchondral Insufficiency Fracture [6]: (0.7%)
- Proportion of Patients with ≥50% Improvement in LBPI at Week 16 (Mixed BOCF/LOCF) ([7]; 5 mg SC every 8 weeks): (51.1%)
- Proportion with ≥50% Improvement in LBPI at Week 16, Difference vs. celecoxib ([7]; 5 mg SC every 8 weeks): 18.5
- Change from Baseline to Week 16 in LBPI (Multiple Imputation), LS Mean ([7]; 5 mg SC every 8 weeks, ITT): −2.91
- Change from Baseline to Week 16 in RMDQ (Multiple Imputation), LS Mean ([7]; 5 mg SC every 8 weeks, ITT): −3.85
- Change from Baseline to Week 16 in RMDQ, LS Mean Difference vs. celecoxib ([7]; 5 mg SC every 8 weeks, ITT): −0.01
- treatment differences for change from baseline to Week 56 for LBPI and RMDQ ([7]; 5 mg group relative to both the tanezumab 10 mg and the celecoxib groups): numerically larger
- Proportion of Patients with ≥50% Improvement in LBPI at Week 16 (Mixed BOCF/LOCF) ([7]; 10 mg SC every 8 weeks): (35.5%)
- Proportion with ≥50% Improvement in LBPI at Week 16, Difference vs. celecoxib ([7]; 10 mg SC every 8 weeks): 2.9
- Change from Baseline to Week 16 in LBPI (Multiple Imputation), LS Mean ([7]; 10 mg SC every 8 weeks, ITT): −2.51
- Change from Baseline to Week 16 in RMDQ (Multiple Imputation), LS Mean ([7]; 10 mg SC every 8 weeks, ITT): −4.38
